Some test systems named below: EKVX NSCLC; HCT-15 colon; NCI-H23 lung; NCI-H522 lung; SN12C renal; SNB-19 CNS; U251 CNS; NCI-H226 lung; RXF 393 renal; SW-620 colon.
Holding throughout (test): NCI-60 cell line screen, 48 h

Structures are written as SMILES. Several values for one entry are separate records, joined by “and”; a condition that tells them apart may be missing. Equal entries are not always repeated.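 Compound exposure: 48 hours, 5 concentrations, 96-well plates. GI50 = concentration required for 50% inhibition of growth. TGI marks complete inhibition of growth.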

For the compound `CC(C)(C)OC(=O)CC(NC(=O)OCc1ccccc1)NC(=O)OC(C)(C)C` (centres undefined), the GI50 in the experiment on EKVX NSCLC was 38.8 µg/mL; in the experiment on HCT-15 colon, 56 µg/mL; in the experiment with NCI-H23 lung it was 39.1 µg/mL; in the experiment with NCI-H522 lung it was 32.9 µg/mL; in the experiment with SN12C renal, 51.9 µg/mL; in the experiment on SNB-19 CNS, 76.2 µg/mL. In addition, in the experiment with U251 CNS, the GI50 was 67.5 µg/mL.
For `C/C=C(/CCC1NCCc2c1[nH]c1ccccc21)[Si](C)(C)C` (centres undefined), the TGI in the experiment on EKVX NSCLC is > 100 µM and 22.3 µM; with HCT-15 colon it was 18.5 µM; with NCI-H226 lung, > 100 µM and 31.4 µM; in the experiment on NCI-H23 lung it was > 100 µM and 25.5 µM; in the experiment on SN12C renal it was > 100 µM and 16.9 µM; with SNB-19 CNS, > 100 µM and 27.3 µM. Besides, the TGI in the experiment on U251 CNS is > 100 µM and 13.6 µM. In addition, the GI50 was 87.1 µM and 11.1 µM in the experiment with NCI-H23 lung; > 100 µM and 13.9 µM in the experiment on SNB-19 CNS.
On to `CC(=O)Nc1ccc2c(c1)C(=O)c1ccccc1-2`, for which the TGI in the experiment on EKVX NSCLC, in the experiment on HCT-15 colon, in the experiment on NCI-H226 lung, in the experiment on NCI-H23 lung, with NCI-H522 lung and in the experiment with RXF 393 renal was more than 100 µM in each case. In addition, the TGI in the experiment on SN12C renal, in the experiment with SNB-19 CNS, in the experiment on SW-620 colon and in the experiment on U251 CNS was more than 100 µM throughout.
For `COC(=O)C1=C(O)C(C(=O)OC)[C@@]2(O)[C@@H](C(=O)OC)[C@H](C)C[C@@H]1[C@@H]2C(=O)OC` (some centres undefined), the TGI was 69.6 µM with EKVX NSCLC; 92.6 µM in the experiment on HCT-15 colon; more than 100 µM with NCI-H226 lung; more than 100 µM in the experiment with NCI-H23 lung; 50.7 µM in the experiment on NCI-H522 lung; 58.9 µM with RXF 393 renal. The TGI is more than 100 µM with SN12C renal, more than 100 µM in the experiment with SNB-19 CNS and 53.2 µM in the experiment with U251 CNS.
As to `CC(C)(CCCCC(C)(C)NC1=NCCO1)NC1=NCCO1`, the TGI with EKVX NSCLC, in the experiment with HCT-15 colon, in the experiment with NCI-H226 lung, in the experiment on NCI-H23 lung, with NCI-H522 lung and in the experiment on RXF 393 renal was more than 10 µM throughout. Further, the TGI in the experiment with SN12C renal, with SNB-19 CNS, in the experiment with SW-620 colon and in the experiment with U251 CNS was more than 10 µM throughout.
As to `CCOC(=O)c1c(Cl)c2c(n1Cc1ccccc1)-c1oncc1CCC2`, the GI50 in the experiment on HCT-15 colon was 3.39 µM; in the experiment on NCI-H226 lung, more than 100 µM; in the experiment on SNB-19 CNS, more than 100 µM; in the experiment with SW-620 colon, 3.81 µM. Further, the TGI in the experiment with HCT-15 colon, with NCI-H226 lung, with SNB-19 CNS and with SW-620 colon was more than 100 µM throughout.
`COC(=O)C(C)NP(=O)(OCc1cccc(Cn2cnc3c(N)ncnc32)c1)Oc1ccccc1` (centres undefined): the GI50 is more than 100 µM in the experiment with EKVX NSCLC; more than 100 µM in the experiment on HCT-15 colon; more than 100 µM in the experiment on NCI-H226 lung; 66 µM in the experiment on NCI-H23 lung; 36 µM in the experiment with NCI-H522 lung; 27.8 µM in the experiment with RXF 393 renal. The GI50 in the experiment with SN12C renal, with SW-620 colon and with U251 CNS was more than 100 µM each time. For the same compound, the TGI with EKVX NSCLC, in the experiment with HCT-15 colon, in the experiment with NCI-H226 lung, in the experiment on NCI-H23 lung, with NCI-H522 lung and with RXF 393 renal was more than 100 µM throughout. Also, the TGI in the experiment on SN12C renal, with SW-620 colon and with U251 CNS was more than 100 µM each time.
Regarding `O=[N+]([O-])c1ccc(N/N=C\c2cc(Br)ccc2O)nc1`, the GI50 is 2.4 µM in the experiment on EKVX NSCLC; 0.437 µM with HCT-15 colon; 3.11 µM with NCI-H226 lung; 1.23 µM in the experiment on NCI-H23 lung; 0.485 µM in the experiment with NCI-H522 lung; 2.17 µM in the experiment with RXF 393 renal. In addition, the GI50 in the experiment with SN12C renal was 0.807 µM; in the experiment with SNB-19 CNS it was 1.05 µM; with SW-620 colon it was 0.934 µM; with U251 CNS, 0.736 µM. Moreover, the TGI with EKVX NSCLC was 7.69 µM; with HCT-15 colon it was more than 100 µM; with NCI-H226 lung, more than 100 µM; in the experiment on NCI-H23 lung, 10.9 µM; in the experiment with NCI-H522 lung, 3.23 µM; in the experiment with RXF 393 renal, 9.95 µM. For the same compound, the TGI is 12.9 µM in the experiment with SN12C renal, 19.8 µM in the experiment on SNB-19 CNS, more than 100 µM in the experiment on SW-620 colon and 3.24 µM in the experiment on U251 CNS.
For `NS(=O)(=O)c1c(O)c2ccccc2oc1=O`, the TGI in the experiment with EKVX NSCLC, with NCI-H226 lung, in the experiment with NCI-H23 lung, with NCI-H522 lung, in the experiment on RXF 393 renal and with SN12C renal was more than 100 µM throughout. Besides, the TGI in the experiment with SNB-19 CNS, in the experiment on SW-620 colon and in the experiment on U251 CNS was more than 100 µM throughout.
Take `NCCCCNOCCCN`: the TGI with EKVX NSCLC, with NCI-H226 lung, with NCI-H23 lung, in the experiment on NCI-H522 lung, in the experiment with RXF 393 renal and in the experiment with SN12C renal was more than 100 µM throughout. For the same compound, the TGI in the experiment on SNB-19 CNS, with SW-620 colon and with U251 CNS was more than 100 µM each time.
As to `O=S1(=O)C(=C(c2ccccc2)c2ccccc2)S(=O)(=O)c2ccccc21`, the TGI in the experiment on EKVX NSCLC, with HCT-15 colon, in the experiment with NCI-H226 lung, in the experiment on NCI-H23 lung, with NCI-H522 lung and in the experiment with RXF 393 renal was more than 100 µM each time. Moreover, the TGI in the experiment with SN12C renal, with SNB-19 CNS, in the experiment with SW-620 colon and in the experiment with U251 CNS was more than 100 µM in each case.

These data come from PubChem BioAssay (NCI).
